{"source": "patent US20130053435A1", "about": "“Methods of Treating Alcohol Intoxication, Alcohol Use Disorders and Alcohol Abuse Which Comprises the Administration of Dihydromyricetin” (priority 2011, published 2013)", "key": {"[1]": {"tested_on": "EtOH-induced LORR in rats", "experimental": "See Kakihana R, et al. (1966) Science 154(756):1574-1575). Briefly, after drug injection, rats were placed in the supine position in a V-shaped support. LORR onset time was taken from the endpoint of drug injection (i.p.). LORR duration ended when the animal was able to flip over three times in 30 s. LORR assays were blindly performed. LORR durations were reported as mean (min)±SEM.\nFurther LORR assays were conducted as follows.\nAdditional pre-treatment and post-treatment experiments were also conducted.\nSee Hunkeler, W., et al. (1981) Nature 290:514-516."}, "[2]": {"tested_on": "GABAAR α4 subunit", "test": "Cell-surface biotinylation and Western blot in cultured hippocampal neurons", "format": "cell-based, rat", "details": "24 hr", "experimental": "Western blots of the cultured neurons were performed and examined as described herein. Biotinylation assays for GABAARs of the cultured neurons were performed as described previously. See Chung W O, et al. (2000) Infect Immun 68(12):6758-6762. Briefly, the neurons in culture dishes were placed on ice and washed twice with ice cold PBS. Then the neurons were incubated for 30 min on ice with PBS containing 1 mg/ml sulfo-NHS-LC-biotin (ProteoChem). After quenching the biotin-reaction with Tris-buffered saline (TBS), neurons were lysed in 150 μl of modified RIPA-buffer (20 mM Tris-HCl (pH 7.5), 150 mM NaCl, 1 mM Na2 EDTA, 1 mM EGTA, 1% NP-40, 1% sodium deoxycholate, 2.5 mM sodium pyrophosphate, 1 mM b-glycerophosphate, 1 mM Na3VO4, and 1 μg/ml leupeptin). The homogenates were centrifuged for 15 min (14,000×g, 4° C.). An aliquot (10%) of the supernatant was removed to measure β-actin. The remaining supernatant was incubated with 60 μl of 50% neutravidin agarose (Pierce Chemical Company) for 4 hr at 4° C. and washed four times with lysis buffer. Agarose-bound proteins were taken up in 20 μl of SDS sample buffer and boiled. Western blots were performed as mentioned above.\nThe surface expression of α4 subunit in cultured neurons was measured using cell-surface biotinylation followed by Western blot analysis."}, "[3]": {"tested_on": "GABAAR α4 subunit", "test": "Western blot of hippocampal tissue after 48 hr withdrawal", "format": "in vivo, rat", "experimental": "Parallel Western blots from rat hippocampus were examined to determine whether EtOH induced changes in total protein of GABAAR α4 subunits. Hippocampal tissues from rats were lysed in RIPA-buffer containing 1% Triton X-100, 0.1% sodium dodecyl sulfate (SDS), 50 mM Na3PO4, 150 mM NaCl, 2 mM EDTA, 50 mM NaF, 10 mM sodium pyrophosphate, 1 mM sodium orthovanadate, 1 mM phenylmethylsulfonyl fluoride (PMSF) and Complete protease inhibitor cocktail (Roche). The lysate was centrifuged for 15 min (14,000×g, 4° C.) and the supernatant collected for Western blot analysis. Western blots were performed using rabbit anti-GABAAR α4 (aa 379-421) and mouse anti-β-actin (Sigma) followed by HRP-conjugated secondary antibodies. Bands were detected using ECL detection kit (Amersham) and analyzed by densitometric measurements using ImageQuant 5.2 (Molecular Dynamics). Bands were stripped with buffer containing 62.5 mM Tris-HCl, 100 mM β-mercaptoethanol and 2% SDS (pH 6.7) and reprobed several times. Protein concentrations were determined with BCA Protein Assay Kit (Pierce) according to the manufacturer instructions.\nThe total protein content of GABAAR α4 subunit in hippocampus 48 hr after the above 4 treatments was assayed."}, "[4]": {"details": "DHM 1 mg/kg i.p. 30 min after EtOH i.p."}, "[5]": {"details": "DHM 1 mg/kg i.p. 30 min prior to EtOH 3 g/kg i.p."}}, "note": "Several values for one entry are separate records, joined by “and”; a condition that tells them apart may be missing. Equal values may be shown once. Read-outs that look alike come from different tables or passages of the source."}
{"compound": "O=C1c2c(O)cc(O)cc2O[C@H](c2cc(O)c(O)c(O)c2)[C@H]1O", "note": "[DHM, (2R,3R)-3,5,7-trihydroxy-2-(3,4,5-trihydroxyphenyl)-2,3-dihydrochromen-4-one]", "values": [{"measurement": "LORR duration remaining from DHM injection", "setting": "[1]; [4]", "value": "21 ± 2 min and 19 ± 1.0 min"}, {"measurement": "remaining LORR, % of control (E+saline)", "setting": "[1]; [4]", "value": "41.2±3.8% and 42%"}, {"measurement": "LORR duration (total)", "setting": "[1]; DHM 1 mg/kg i.p. 30 min after EtOH i.p. (b63 prints 3 mg/kg)", "value": "49 ± 2", "unit": "min"}, {"measurement": "LORR duration", "setting": "[1]; [5]", "value": "8 ± 4 min and 8.2 ± 4.1 min"}, {"measurement": "LORR duration, % of control", "setting": "[1]; [5]", "value": "10.6±5.9 % of control"}, {"measurement": "LORR duration, % of control", "setting": "[1]; co-administration DHM 1 mg/kg i.p. with EtOH i.p.", "value": "1.2±0.6 % of control"}, {"measurement": "LORR duration", "setting": "[1]; co-injection DHM 3 mg/kg and EtOH 3 g/kg i.p.", "value": "2.7 ± 1.7", "unit": "min"}, {"measurement": "EtOH-induced LORR duration in female rats", "setting": "[1]; female rats, combined treatment DHM 1 mg/kg i.p. with EtOH 3 g/kg i.p.", "value": "reduction"}, {"measurement": "α4 surface expression", "setting": "[2]; neurons treated with DHM", "value": "125.0±27.3 % of control"}, {"measurement": "α4 subunit surface expression", "setting": "[2]; neurons treated with EtOH+DHM", "value": "123.0±8.4 % of control"}, {"measurement": "total α4 subunit level", "setting": "[3]; DHM group", "value": "88.3±10.3 % of control"}, {"measurement": "total α4-protein level", "setting": "[3]; EtOH+DHM group", "value": "93.0±21.0 % of control"}]}
